From patent EP0973746B1, “SUBSTITUTED 3-CYANO QUINOLINES” (Wyeth Holdings Corporation, priority 1997, dated 1998)
≈ marks a conversion by molar mass, not a printed value. Where two headings read alike, the source gives them in different places. Blank lines part the entries; values can stand above or below the compound they belong to.

Key:
A431 [1] = test: Inhibition of cell growth by incorporation of [3H]-thymidine, A431; type: cell-based, human; conditions: [3H]-thymidine incorporation, A431, read-out: IC50 A431
Procedure: (§1) Representative compounds of this invention were evaluated for their ability to inhibit the growth of the cell lines described below in vitro. The inhibition is quantitated by measuring the decrease in the incorporation of radio-labeled thymidine when the cells are grown in the presence of the inhibitor. […] Cells were routinely grown in a humidified incubator in 5% CO2 in air.
(§2) Cells were seeded at 10,000 cells/well in 96 well plates in complete media and allowed to grow to log phase. At this stage the complete media was replaced with media containing 0.5% FBS (for cells growing in 10% FBS) or media lacking epidermal growth factor (EGF) (for cells growing in serum free media). […] Media with test compound was then removed and complete media was added back. The cells were allowed to grow for 18 hours. This is followed by incubation in [^3H]thymidine (1mCi/ml in serum/EGF media) for 4 hours. Cells were lysed in 0.5 M NaOH for at least 30 min at 37°C and radioactivity analyzed.
(§3) The % inhibition of the compound evaluated was determined for at least three different concentrations and the IC50 value evaluated from the dose response curve. […] CPM(control) is in units of counts per minute and is a number expressing the amount of [^3H]thymidine incorporated onto the DNA when cells are grown in the absence of test compound as measured by liquid scintillation counting.

NEU-3T3 = test: Inhibition of cell growth by incorporation of [3H]-thymidine, Neu-3T3; type: cell-based, mouse; conditions: [3H]-thymidine incorporation
Procedure: as §1, §2, §3

NHEK = test: Inhibition of cell growth by incorporation of [3H]-thymidine, NHEK; type: cell-based, human; conditions: [3H]-thymidine incorporation, read-out: IC50 NHEK
SKBR3 [2] = test: Inhibition of cell growth by incorporation of [3H]-thymidine, SKBR3; type: cell-based, human
Procedure: as §1, §2, §3

HTB161 = test: Inhibition of cancer cell growth as measured by cell number, HTB161; type: cell-based; conditions: Homo sapiens; cell number, Sulforhodamine B, 48 hours exposure; Table 4; read-out: IC50 HTB161
A27805 = test: Inhibition of cancer cell growth as measured by cell number, A27805; type: cell-based; conditions: Homo sapiens; cell number, Sulforhodamine B, 48 hours exposure; Table 4; read-out: IC50 A27805
A2780DDP = test: Inhibition of cancer cell growth as measured by cell number, A2780DDP; type: cell-based; conditions: Homo sapiens; cell number, Sulforhodamine B, 48 hours exposure; Table 4; read-out: IC50 A2780DDP
MIP = test: Inhibition of cancer cell growth as measured by cell number, MIP; type: cell-based; conditions: Homo sapiens; cell number, Sulforhodamine B, 48 hours exposure; Table 4; read-out: IC50 MIP
SW620 = test: Inhibition of cancer cell growth as measured by cell number, SW620; type: cell-based, human; conditions: Homo sapiens, SW-620, 48 h, cell number, Sulforhodamine B, 48 hours exposure, read-out: IC50 SW620;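 also: SW620 was included as a cell line with little or no EGFR or HER2/neu expression, in contrast to receptor-overexpressing lines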
Source text: (§4) The cell lines were chosen since they overexpressed epidermal growth factor receptor (EGFR) (i.e. A431) or HER2/neu (SKBR3), or had little to no expression of the these receptors (SW620, LOX, MCF7).

COLO205 = test: Inhibition of cancer cell growth as measured by cell number, COLO205; type: cell-based; conditions: Homo sapiens, COLO 205; cell number, Sulforhodamine B, 48 hours exposure; Table 4; read-out: IC50 COLO205
CX1 = test: Inhibition of cancer cell growth as measured by cell number, CX1; type: cell-based; conditions: Homo sapiens, CX-1; cell number, Sulforhodamine B, 48 hours exposure; Table 4; read-out: IC50 CX1
CACO2 = test: Inhibition of cancer cell growth as measured by cell number, CACO2; type: cell-based; conditions: Homo sapiens, Caco-2; cell number, Sulforhodamine B, 48 hours exposure; Table 5; read-out: IC50 CACO2
HCT15 = test: Inhibition of cancer cell growth as measured by cell number, HCT15; type: cell-based; conditions: Homo sapiens, HCT-15; cell number, Sulforhodamine B, 48 hours exposure; Table 5; read-out: IC50 HCT15
LS174T = test: Inhibition of cancer cell growth as measured by cell number, LS174T; type: cell-based; conditions: Homo sapiens, cell number, Sulforhodamine B, 48 hours exposure, Table 5, read-out: IC50 LS174T
SW948 = test: Inhibition of cancer cell growth as measured by cell number, SW948; type: cell-based; conditions: Homo sapiens, SW948; cell number, Sulforhodamine B, 48 hours exposure; Table 5; read-out: IC50 SW948
CCL228 = test: Inhibition of cancer cell growth as measured by cell number, CCL228; type: cell-based; conditions: Homo sapiens; cell number, Sulforhodamine B, 48 hours exposure; Table 5; read-out: IC50 CCL228
MCF7 = test: Inhibition of cancer cell growth as measured by cell number, MCF7; type: cell-based, human; conditions: Homo sapiens, MCF7, 48 h, cell number, Sulforhodamine B, 48 hours exposure, read-out: IC50 MCF7;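 also: MCF7 was included as a line with little or no EGFR or HER2/neu expression, in contrast to the receptor-overexpressing lines of the panel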
Source text: as §4

B7474 = test: Inhibition of cancer cell growth as measured by cell number, B7474; type: cell-based; conditions: Homo sapiens; cell number, Sulforhodamine B, 48 hours exposure; Table 6; read-out: IC50 B7474
T47D = test: Inhibition of cancer cell growth as measured by cell number, T47D; type: cell-based; conditions: Homo sapiens, cell number, Sulforhodamine B, 48 hours exposure, Table 6, read-out: IC50 T47D
LX1 = test: Inhibition of cancer cell growth as measured by cell number, LX1; type: cell-based; conditions: Homo sapiens, LX-1; cell number, Sulforhodamine B, 48 hours exposure; Table 6; read-out: IC50 LX1
A549 = test: Inhibition of cancer cell growth as measured by cell number, A549; type: cell-based; conditions: Homo sapiens, A549; cell number, Sulforhodamine B, 48 hours exposure; Table 6; read-out: IC50 A549
LOX = test: Inhibition of cancer cell growth as measured by cell number, LOX; type: cell-based, human; conditions: Homo sapiens, LOX, 48 h, cell number, Sulforhodamine B, 48 hours exposure, read-out: IC50 LOX;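 also: LOX cells served as a line with low or absent EGFR and HER2/neu expression, in contrast to receptor-overexpressing lines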
Source text: as §4

A431 [3] = test: Inhibition of cancer cell growth as measured by cell number, A431; type: cell-based, human; conditions: Homo sapiens, A-431, 48 h, cell number, Sulforhodamine B, 48 hours exposure, read-out: IC50 A431;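 also: human A431 line, picked because it overexpresses epidermal growth factor receptor (EGFR)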
Source text: as §4

NEC = test: Inhibition of cancer cell growth as measured by cell number, NEC; type: cell-based; conditions: Homo sapiens; cell number, Sulforhodamine B, 48 hours exposure; Table 6; read-out: IC50 NEC
DU145 = test: Inhibition of cancer cell growth as measured by cell number, DU145; type: cell-based; conditions: Homo sapiens, DU-145; cell number, Sulforhodamine B, 48 hours exposure; Table 7; read-out: IC50 DU145
PC3 = test: Inhibition of cancer cell growth as measured by cell number, PC3; type: cell-based; conditions: Homo sapiens, PC-3; cell number, Sulforhodamine B, 48 hours exposure; Table 7; read-out: IC50 PC3
LNCAP = test: Inhibition of cancer cell growth as measured by cell number, LNCAP; type: cell-based; conditions: Homo sapiens, cell number, Sulforhodamine B, 48 hours exposure, Table 7, read-out: IC50 LNCAP
HL60 = test: Inhibition of cancer cell growth as measured by cell number, HL60; type: cell-based; conditions: Homo sapiens, HL-60; cell number, Sulforhodamine B, 48 hours exposure; Table 7; read-out: IC50 HL60
CCRF-CFM = test: Inhibition of cancer cell growth as measured by cell number, CCRF-CFM; type: cell-based; conditions: Homo sapiens; cell number, Sulforhodamine B, 48 hours exposure; Table 7; read-out: IC50 CCRF-CFM
SKBR3 [4] = test: Inhibition of cancer cell growth as measured by cell number, SKBR3; type: cell-based, human; conditions: Homo sapiens, SK-BR-3; cell number, Sulforhodamine B, 48 hours exposure; Table 8; read-out: IC50 SKBR3;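 also: SK-BR-3 cells were selected as a line overexpressing HER2/neu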
Source text: as §4

[5] = molecular target: epidermal growth factor receptor kinase (Homo sapiens, UniProt P00533); test: biochemical
epidermal growth factor receptor kinase, sequence (P00533 25-1210): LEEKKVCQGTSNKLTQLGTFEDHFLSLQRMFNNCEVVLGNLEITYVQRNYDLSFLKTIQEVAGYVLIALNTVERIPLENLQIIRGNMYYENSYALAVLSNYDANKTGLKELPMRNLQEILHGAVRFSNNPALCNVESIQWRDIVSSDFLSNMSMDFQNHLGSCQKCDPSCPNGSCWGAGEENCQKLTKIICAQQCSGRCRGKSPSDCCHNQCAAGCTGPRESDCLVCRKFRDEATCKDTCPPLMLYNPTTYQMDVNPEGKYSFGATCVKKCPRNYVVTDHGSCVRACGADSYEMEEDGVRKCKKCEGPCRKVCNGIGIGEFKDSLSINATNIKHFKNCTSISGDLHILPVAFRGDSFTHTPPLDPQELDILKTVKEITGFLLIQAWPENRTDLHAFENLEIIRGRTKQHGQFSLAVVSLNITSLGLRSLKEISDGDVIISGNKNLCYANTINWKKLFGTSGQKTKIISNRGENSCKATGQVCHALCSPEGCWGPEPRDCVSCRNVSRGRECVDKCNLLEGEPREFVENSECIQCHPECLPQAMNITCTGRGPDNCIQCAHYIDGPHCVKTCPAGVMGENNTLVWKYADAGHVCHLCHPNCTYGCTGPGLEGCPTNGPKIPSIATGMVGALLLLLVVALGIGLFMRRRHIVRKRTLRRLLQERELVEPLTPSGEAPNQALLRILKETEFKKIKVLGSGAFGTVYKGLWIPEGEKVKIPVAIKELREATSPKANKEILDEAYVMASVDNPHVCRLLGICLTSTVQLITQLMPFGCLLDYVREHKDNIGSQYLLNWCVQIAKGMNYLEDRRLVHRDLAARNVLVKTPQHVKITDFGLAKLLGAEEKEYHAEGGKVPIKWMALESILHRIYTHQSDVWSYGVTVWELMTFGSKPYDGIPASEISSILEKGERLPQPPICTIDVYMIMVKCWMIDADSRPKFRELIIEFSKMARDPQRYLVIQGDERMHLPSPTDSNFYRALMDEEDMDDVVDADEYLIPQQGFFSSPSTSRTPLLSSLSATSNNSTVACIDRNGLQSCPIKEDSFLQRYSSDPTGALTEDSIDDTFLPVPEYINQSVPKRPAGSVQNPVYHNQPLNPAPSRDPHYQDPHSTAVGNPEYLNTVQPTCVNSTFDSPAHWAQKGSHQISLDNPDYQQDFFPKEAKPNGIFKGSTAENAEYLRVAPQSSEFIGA

IC50 (A431 [1]): 100 nM
IC50 (SKBR3 [2]; [3H]-thymidine incorporation): > 50000 nM
SMILES: CCOC(=O)c1cnc2cc(OC)c(OC)cc2c1O [Example 26, 3-Carbethoxy-4-hydroxy-6.7-dimethoxyquinoline]
IC50 (NEU-3T3): > 50000 nM
IC50 (NHEK): 400 nM

SMILES: COc1cc2ncc(C#N)c(Nc3cccc(Br)c3)c2cc1OC [Example 31, 4-[(3-Bromophenyl)amino]-6,7-dimethoxy-3-quinolinecarbonitrile]
IC50 (A431 [1]; Homo sapiens, A-431): 200 nM
IC50 (NHEK; Homo sapiens): 3 nM
IC50 (SKBR3 [2]; Homo sapiens, SK-BR-3, [3H]-thymidine incorporation): 25000 nM
IC50 (HTB161): 0.793 µg/mL (≈ 2.06 µM)
IC50 (A27805): 2.03 µg/mL (≈ 5.28 µM)
IC50 (A2780DDP): 1.17 µg/mL (≈ 3.03 µM)
IC50 (MIP): 0.748 µg/mL (≈ 1.95 µM)
IC50 (SW620; Table 4): 4.54 µg/mL (≈ 11.8 µM)
IC50 (SW620; Table 8): 0.82 µg/mL (≈ 2.13 µM)
IC50 (COLO205): 3.1 µg/mL (≈ 8.06 µM)
IC50 (CX1): 0.97 µg/mL (≈ 2.52 µM)
IC50 (CACO2): 0.925 µg/mL (≈ 2.41 µM)
IC50 (HCT15): 0.727 µg/mL (≈ 1.89 µM)
IC50 (LS174T): 0.885 µg/mL (≈ 2.3 µM)
IC50 (SW948): 5.48 µg/mL (≈ 14.3 µM)
IC50 (CCL228): 4.91 µg/mL (≈ 12.8 µM)
IC50 (MCF7; Table 5): 5.66 µg/mL (≈ 14.7 µM)
IC50 (MCF7; Table 8): 6.04 µg/mL (≈ 15.7 µM)
IC50 (B7474): 1.58 µg/mL (≈ 4.1 µM)
IC50 (T47D): 3.33 µg/mL (≈ 8.67 µM)
IC50 (LX1): 6.88 µg/mL (≈ 17.9 µM)
IC50 (A549): 2.27 µg/mL (≈ 5.91 µM)
IC50 (LOX; Table 6): 0.871 µg/mL (≈ 2.27 µM)
IC50 (LOX; Table 8): 1.65 µg/mL (≈ 4.29 µM)
IC50 (A431 [3]; Table 6): 0.434 µg/mL (≈ 1.13 µM)
IC50 (A431 [3]; Table 8): 0.1 µg/mL (≈ 0.26 µM)
IC50 (NEC): 2.23 µg/mL (≈ 5.81 µM)
IC50 (DU145): 0.585 µg/mL (≈ 1.52 µM)
IC50 (PC3): 5.16 µg/mL (≈ 13.4 µM)
IC50 (LNCAP): 0.772 µg/mL (≈ 2.01 µM)
IC50 (HL60): 0.894 µg/mL (≈ 2.33 µM)
IC50 (CCRF-CFM): 3.19 µg/mL (≈ 8.3 µM)
IC50 (SKBR3 [4]): 0.48 µg/mL (≈ 1.25 µM)
IC50 [5]: 1.5 nM
